According to US11273172B2, “Synergistic combination of oligonucleotides and chemotherapeutic for treating cancer” (THE BOARD OF TRUSTEES OF THE UNIVERSITY OF ILLINOIS, priority 2017, dated 2022):
“And” between values parts separate entries of the source, which are not always exact repeats. Equal values may be shown once.

What was measured:
Assay in all cases: MTT cell death assay, chemotherapeutic with and without MADD siRNA knockdown
[1] = tested on: C643 thyroid cancer cells; format: cell-based, human; settings: Sorafinib 0.975 μM, siRNA 10 nM, 48 hours post Sorafinib treatment
Experimental: (§1) Cells are cultured and maintained at 37° C. in a humidified atmosphere containing 5% CO2 as described above. On Day 0, Cells are seeded in […] tissue culture dishes (Corning; Cat Number: 353003) to attain 60-70% confluence. In parallel, cells are also seeded in one 96-well plate (Corning; Cat number: 353072) for analysis of survival before reseeding. After 12-18 hours (Day 1), cells are transfected with Scramble or MADD siRNA at 10 nM concentration. The sequences of siRNAs (double-stranded) used are:
(§2) On Day 4, when cells are properly adhered and retained their shape in 96-well plates, drugs are added. All drugs are diluted in complete media on the same day prior to the addition to the cells. In untreated cells, media is replaced with complete media. Two hundred μl volume of media (with or without drugs) is used for the drug treatment assay. Plates are incubated 24 hours, 48 hours and 72 hours at 37° C. in humidified CO2 incubator.
(§3) An MTT assay is performed to determine relative survival after drug treatment as described above. MTT (3-[4,5-Dimethylthiazol-2-yl]-2,5-diphenyltetrazolium bromide; Thiazolyl blue) is purchased from Sigma Aldrich (Cat number: M5655). MTT is dissolved in sterile DPBS at the concentration of 5 mg/ml and filtered through 0.45 μM syringe filter (Corning; Cat number: 431220). Ten μl of MTT solution is added per well of 96-well plate. Plates are incubated for 2 hours at 37° C. in the humidified CO2 incubator. After 2 hours, media is aspirated using vacuum inside the biosafety hood. Purple colored crystals formed in viable cells are dissolved by adding 100 μl of Dimethyl sulfoxide (Thermo Fisher Scientific; Cat number D128-500) Plates are kept on shaker for 10 minutes for compete dissolution of crystals and absorbance is recorded at 595 nm using Bio-Rad iMark microplate reader. Data is analyzed in MICROSOFT EXCEL® software. Relative survival is calculated with respect to absorbance of control (untreated cells) to determine the effect of transfection as well as combination treatment.
(§4) Each data set takes into account any spontaneous cell death which is observed upon transfection with Scramble siRNA; the amount of spontaneous cell death from Scramble siRNA transfection (baseline) is subtracted from the amount of cell death observed in each siRNA transfection reaction to yield a Net Percent (Net %) cell death after accounting for Scrambled siRNA-induced cell death.

H522 lung cancer cells = format: cell-based; settings: siRNA 10 nM
Experimental: as §1, §2, §3, §4
as §1, with “(double stranded)” for “(double-stranded)”
as §3, with “D128-500).” for “D128-500)”, “Relative survival is calculated with respect to absorbance of control (untreated cells) to determine the effect of transfection as well as combination treatment.” left out

[2] = tested on: OVCAR3 ovarian cancer cells; format: cell-based; settings: siRNA 10 nM
Experimental: as §1, §2, §3, §4
as §1, with “(double stranded)” for “(double-stranded)”
as §3, with “D128-500).” for “D128-500)”, “Relative survival is calculated with respect to absorbance of control (untreated cells) to determine the effect of transfection as well as combination treatment.” left out

[3] = tested on: CFPAC-1 pancreatic cancer cells; format: cell-based; settings: siRNA 10 nM, 72 hours post TRAIL treatment
Experimental: as §1, with “(double stranded)” for “(double-stranded)”
as §2, with “24 h,” for “24 hours,”, “48 h” for “48 hours”
as §3, §4

[4] = tested on: SKOV3 ovarian cancer cells; format: cell-based; settings: TRAIL 50 ng/ml, siRNA 10 nM, 48 hours post TRAIL treatment
Experimental: as §1, with “(double stranded)” for “(double-stranded)”
as §2, with “24 h,” for “24 hours,”, “48 h” for “48 hours”
as §3, §4

[5] = tested on: 8505C thyroid cancer cells; format: cell-based; settings: siRNA 10 nM
Experimental: Cells are cultured and maintained at 37° C. in a humidified atmosphere containing 5% CO2 as described above. […] After 12-18 hours (Day 1), cells are transfected with Scramble or MADD siRNA at 10 nM concentration. The sequences of siRNAs (double stranded) used are:
as §2, with “24 h,” for “24 hours,”, “48 h” for “48 hours”
as §3, with “MTT is dissolved in sterile DPBS at the concentration of 5 mg/ml and filtered through 0.45 μM syringe filter (Corning; Cat number: 431220).” left out
as §4, §2

[6] = Sorafinib 1.56 μM, 48 hours post Sorafinib treatment
[7] = Sorafinib 5 μM, 48 hours post Sorafinib treatment
[8] = Gemcitabine 8.2 nM, 48 hours post Gemcitabine treatment
[9] = TRAIL 100 ng/ml, 48 hours post TRAIL treatment
[10] = Gemcitabine 0.0125 μM, 72 hours post Gemcitabine treatment
[11] = Gemcitabine 0.1 μM, 48 hours post Gemcitabine treatment
[12] = 8505C thyroid cancer cells, TRAIL 6.25 ng/ml, 48 hours post TRAIL treatment
[13] = 8505C, Cisplatin 2.5 μM, 48 hours post Cisplatin treatment
[14] = 8508C thyroid cancer cells, TRAIL 6.25 ng/ml, 48 hours post TRAIL treatment

| Molecule | Net % cell death after accounting for Scrambled siRNA [1] | Observed % Cell death [1] [%] | Net % cell death after accounting for Scrambled siRNA (H522 lung cancer cells; [6]) | Observed % Cell death (H522 lung cancer cells; [6]) [%] | Net % cell death after accounting for Scrambled siRNA [2, 7] | Observed % Cell death [2, 7] [%] | Net % cell death after accounting for Scrambled siRNA ([3]; TRAIL 6.25 ng/ml) | Observed % Cell death ([3]; TRAIL 6.25 ng/ml) [%] | Net % cell death after accounting for Scrambled siRNA ([3]; TRAIL 12.5 ng/ml) | Observed % Cell death ([3]; TRAIL 12.5 ng/ml) [%] | Net % cell death after accounting for Scrambled siRNA [4] | Observed % Cell death [4] [%] | Observed % Cell death (H522 lung cancer cells; [8]) [%] | Net % cell death after accounting for Scrambled siRNA (H522 lung cancer cells; [9]) | Observed % Cell death (H522 lung cancer cells; [9]) [%] | Observed % Cell death [2, 10] [%] | Observed % Cell death [2, 11] [%] | Net % cell death after accounting for Scrambled siRNA [5, 12] | Net % cell death after accounting for Scrambled siRNA [5, 13] | Observed % Cell death [5, 14] [%] | other results |
| --- | --- | --- | --- | --- | --- | --- | --- | --- | --- | --- | --- | --- | --- | --- | --- | --- | --- | --- | --- | --- | --- |
| CNC(=O)c1cc(Oc2ccc(NC(=O)Nc3ccc(Cl)c(C(F)(F)F)c3)cc2)ccn1 [Sorafinib] | 3% | 3 | 0% | 0 | 17% | 17 | – | – | – | – | – | – | – | – | – | – | – | – | – | – | – |
| Scrambled siRNA: non-specific Scramble siRNA, negative control; SEQ ID NO: 5, 5′-UUGCUAAGCGUCGGUCAAUTT-3′ (chemistry not given here) | 1 − 1 = 0% | 1 | 30 − 30 = 0% | 30 | 17 − 17 = 0% | 17 | 17 − 17 = 0% | 0 | 0 − 0 = 0% | 0 | 9 − 9 = 0% | 9 | 30 | 30 − 30 = 0% | 30 | 26 | 17 | 10 − 10 = 0% | 10% | 10 | Net % cell death after accounting for Scrambled siRNA (H522 lung cancer cells; [8]): 30 − 30 = 0%; Net % cell death after accounting for Scrambled siRNA [2, 10]: 26 − 26 = 0%; Net % cell death after accounting for Scrambled siRNA [2, 11]: 17 − 17 = 0%; Observed % Cell death [5, 13]: 10% |
| MADD siRNA: siRNA targeting exon 13L of the MADD splice variant of the IG20 gene; SEQ ID NO: 4, 5′-GAUUGUCAUAGAUUCGCCGTT-3′ (chemistry not given here) | 13% and 14 − 1 = 13% | 14 | – | 37 | – | 19 | 53% and 53 − 0 = 53% | 53 | 53% and 53 − 0 = 53% | 53 | 29% and 38 − 9 = 29% | 38 | 37 | – | 37 | 23 | 19 | 39% and 49 − 10 = 39% | 39% and 49 − 10 = 39% | 49 | Observed % Cell death [5, 13]: 49% |
| TRAIL: cytotoxic protein which induces apoptosis in tumor cells, but not in normal cells (protein, UniProt P50591 1-281, looked up) Tumor necrosis factor ligand …: MAMMEVQGGPSLGQTCVLIVIFTVLLQSLCVAVTYVYFTNELKQMQDKYSKSGIACFLKEDDSYWDPNDEESMNSPCWQVKWQLRQLVRKMILRTSEETISTVQEKQQNISPLVRERGPQRVAAHITGTRGRSNTLSSPNSKNEKALGRKINSWESSRSGHSFLSNLHLRNGELVIHEKGFYYIYSQTYFRFQEEIKENTKNDKQMVQYIYKYTSYPDPILLMKSARNSCWSKDAEYGLYSIYQGGIFELKENDRIFVSVTNEHLIDMDHEASFFGAFLVG | – | – | – | – | – | – | 30% | 30 | 8% | 8 | 13% | 13 | – | 0% | 0 | – | – | 6.56% and 7% | – | 7 | – |
